Laboratory results from ChEMBL document CHEMBL3046897, “Synthesis of 3-{4-[4-dimethylamino-6-(4-methyl-2-oxo-2H-chromen-7-yloxy)-[1,3,5]triazin-2-ylamino]-phenyl}-2-phenyl-5-(4-pyridin-2-yl-piperazin-1-ylmethyl)-thiazolidin-4-one and their biological evaluation” (2012).
Values after ≈ are worked out from the molar mass of the structure shown.

Tests used:
Assay type in all cases: functional
Shigella flexneri [1] = test: Antibacterial activity against Shigella flexneri after 24 hr by agar streak dilution method
Aspergillus niger [2] = test: Antifungal activity against Aspergillus niger after 48 hr by agar streak dilution method
Aspergillus fumigatus [3] = test: Antifungal activity against Aspergillus fumigatus after 48 hr by agar streak dilution method
Bacillus subtilis [4] = test: Antibacterial activity against Bacillus subtilis at 100 ug/disk after 24 hr by paper disk diffusion method; conditions: read-out: IZ
Proteus vulgaris [5] = test: Antibacterial activity against Proteus vulgaris after 24 hr by agar streak dilution method
Aspergillus niger [6] = test: Antifungal activity against Aspergillus niger at 100 ug/disk after 48 hr by paper disk diffusion method; conditions: read-out: IZ
Klebsiella pneumoniae [7] = test: Antibacterial activity against Klebsiella pneumoniae at 100 ug/disk after 24 hr by paper disk diffusion method; conditions: read-out: IZ
Pseudomonas aeruginosa [8] = test: Antibacterial activity against Pseudomonas aeruginosa after 24 hr by agar streak dilution method
Staphylococcus aureus [9] = test: Antibacterial activity against Staphylococcus aureus at 100 ug/disc after 24 hr by paper disk diffusion method; conditions: read-out: IZ
Aspergillus clavatus [10] = test: Antifungal activity against Aspergillus clavatus after 48 hr by agar streak dilution method
Escherichia coli [11] = test: Antibacterial activity against Escherichia coli after 24 hr by agar streak dilution method
Proteus vulgaris [12] = test: Antibacterial activity against Proteus vulgaris at 100 ug/disk after 24 hr by paper disk diffusion method; conditions: read-out: IZ
Salmonella typhi [13] = test: Antibacterial activity against Salmonella enterica subsp. enterica serovar Typhi at 100 ug/disk after 24 hr by paper disk diffusion method; conditions: read-out: IZ
Salmonella typhi [14] = test: Antibacterial activity against Salmonella enterica subsp. enterica serovar Typhi after 24 hr by agar streak dilution method
Shigella flexneri [15] = test: Antibacterial activity against Shigella flexneri at 100 ug/disc after 24 hr by paper disk diffusion method; conditions: read-out: IZ
Pseudomonas aeruginosa [16] = test: Antibacterial activity against Pseudomonas aeruginosa at 100 ug/disk after 24 hr by paper disk diffusion method; conditions: read-out: IZ
Candida albicans [17] = test: Antifungal activity against Candida albicans at 100 ug/disk after 48 hr by paper disk diffusion method; conditions: read-out: IZ
Klebsiella pneumoniae [18] = test: Antibacterial activity against Klebsiella pneumoniae after 24 hr by agar streak dilution method
Bacillus subtilis [19] = test: Antibacterial activity against Bacillus subtilis after 24 hr by agar streak dilution method
Candida albicans [20] = test: Antifungal activity against Candida albicans after 48 hr by agar streak dilution method
Aspergillus fumigatus [21] = test: Antifungal activity against Aspergillus fumigatus at 100 ug/disc after 48 hr by paper disk diffusion method; conditions: read-out: IZ
Escherichia coli [22] = test: Antibacterial activity against Escherichia coli at 100 ug/disk after 24 hr by paper disk diffusion method; conditions: read-out: IZ
Aspergillus clavatus [23] = test: Antifungal activity against Aspergillus clavatus at 100 ug/disc after 48 hr by paper disk diffusion method; conditions: read-out: IZ
Staphylococcus aureus [24] = test: Antibacterial activity against Staphylococcus aureus after 24 hr by agar streak dilution method

Work on `Cc1cc(=O)oc2cc(Oc3nc(Nc4ccc(/N=C/c5ccc(O)cc5O)cc4)nc(N(C)C)n3)ccc12` yielded an MIC (Shigella flexneri [1]) of 100 µg/mL (≈ 191 µM), an MIC (Aspergillus niger [2]) of 100 µg/mL (≈ 191 µM) and an MIC (Aspergillus fumigatus [3]) of 25 µg/mL (≈ 47.7 µM). It also gave a zone of inhibition at 100 µg/disc (Bacillus subtilis [4]) of 18 mm, an MIC (Proteus vulgaris [5]) of 50 µg/mL (≈ 95.3 µM) and a zone of inhibition at 100 µg/disc (Aspergillus niger [6]) of 14 mm. It also gave a zone of inhibition at 100 µg/disc (Klebsiella pneumoniae [7]) of 19 mm, an MIC (Pseudomonas aeruginosa [8]) of 50 µg/mL (≈ 95.3 µM) and a zone of inhibition at 100 µg/disc (Staphylococcus aureus [9]) of 20 mm. It also gave an MIC (Aspergillus clavatus [10]) of 100 µg/mL (≈ 191 µM), an MIC (Escherichia coli [11]) of 25 µg/mL (≈ 47.7 µM) and a zone of inhibition at 100 µg/disc (Proteus vulgaris [12]) of 17 mm. It also gave a zone of inhibition at 100 µg/disc (Salmonella typhi [13]) of 18 mm, an MIC (Salmonella typhi [14]) of 50 µg/mL (≈ 95.3 µM) and a zone of inhibition at 100 µg/disc (Shigella flexneri [15]) of 18 mm. For the same compound, the zone of inhibition at 100 µg/disc (Pseudomonas aeruginosa [16]) was 17 mm, the zone of inhibition at 100 µg/disc (Candida albicans [17]) was 20 mm and the MIC (Klebsiella pneumoniae [18]) was 50 µg/mL (≈ 95.3 µM). It also gave an MIC (Bacillus subtilis [19]) of 25 µg/mL (≈ 47.7 µM), an MIC (Candida albicans [20]) of 25 µg/mL (≈ 47.7 µM) and a zone of inhibition at 100 µg/disc (Aspergillus fumigatus [21]) of 18 mm. It also gave a zone of inhibition at 100 µg/disc (Escherichia coli [22]) of 18 mm, a zone of inhibition at 100 µg/disc (Aspergillus clavatus [23]) of 15 mm and an MIC (Staphylococcus aureus [24]) of 12.5 µg/mL (≈ 23.8 µM).
`Cc1cc(=O)oc2cc(Oc3nc(Nc4ccc(N5C(=O)CSC5c5ccc(F)cc5)cc4)nc(N(C)C)n3)ccc12` (stereo not given) gave an MIC (Shigella flexneri [1]) of 50 µg/mL (≈ 85.5 µM), an MIC (Aspergillus niger [2]) of 12.5 µg/mL (≈ 21.4 µM) and an MIC (Aspergillus fumigatus [3]) of 50 µg/mL (≈ 85.5 µM). The zone of inhibition at 100 µg/disc (Bacillus subtilis [4]) was 20 mm, the MIC (Proteus vulgaris [5]) was 25 µg/mL (≈ 42.8 µM) and the zone of inhibition at 100 µg/disc (Aspergillus niger [6]) was 25 mm. The zone of inhibition at 100 µg/disc (Klebsiella pneumoniae [7]) was 15 mm, the MIC (Pseudomonas aeruginosa [8]) was 25 µg/mL (≈ 42.8 µM) and the zone of inhibition at 100 µg/disc (Staphylococcus aureus [9]) was 23 mm. The MIC (Aspergillus clavatus [10]) was 25 µg/mL (≈ 42.8 µM), the MIC (Escherichia coli [11]) was 50 µg/mL (≈ 85.5 µM) and the zone of inhibition at 100 µg/disc (Proteus vulgaris [12]) was 20 mm. The zone of inhibition at 100 µg/disc (Salmonella typhi [13]) was 17 mm, the MIC (Salmonella typhi [14]) was 50 µg/mL (≈ 85.5 µM) and the zone of inhibition at 100 µg/disc (Shigella flexneri [15]) was 18 mm. For the same compound, the zone of inhibition at 100 µg/disc (Pseudomonas aeruginosa [16]) was 22 mm, the zone of inhibition at 100 µg/disc (Candida albicans [17]) was 24 mm and the MIC (Klebsiella pneumoniae [18]) was 100 µg/mL (≈ 171 µM). The MIC (Bacillus subtilis [19]) was 25 µg/mL (≈ 42.8 µM), the MIC (Candida albicans [20]) was 12.5 µg/mL (≈ 21.4 µM) and the zone of inhibition at 100 µg/disc (Aspergillus fumigatus [21]) was 18 mm. It also gave a zone of inhibition at 100 µg/disc (Escherichia coli [22]) of 17 mm, a zone of inhibition at 100 µg/disc (Aspergillus clavatus [23]) of 22 mm and an MIC (Staphylococcus aureus [24]) of 25 µg/mL (≈ 42.8 µM).
For `COc1ccc(C2SCC(=O)N2c2ccc(Nc3nc(Oc4ccc5c(C)cc(=O)oc5c4)nc(N(C)C)n3)cc2)cc1` (stereo not given), the MIC (Shigella flexneri [1]) was 100 µg/mL (≈ 168 µM), the MIC (Aspergillus niger [2]) was 50 µg/mL (≈ 83.8 µM) and the MIC (Aspergillus fumigatus [3]) was 50 µg/mL (≈ 83.8 µM). It also gave a zone of inhibition at 100 µg/disc (Bacillus subtilis [4]) of 16 mm, an MIC (Proteus vulgaris [5]) of 50 µg/mL (≈ 83.8 µM) and a zone of inhibition at 100 µg/disc (Aspergillus niger [6]) of 19 mm. It also gave a zone of inhibition at 100 µg/disc (Klebsiella pneumoniae [7]) of 17 mm, an MIC (Pseudomonas aeruginosa [8]) of 100 µg/mL (≈ 168 µM) and a zone of inhibition at 100 µg/disc (Staphylococcus aureus [9]) of 18 mm. For the same compound, the MIC (Aspergillus clavatus [10]) was 100 µg/mL (≈ 168 µM), the MIC (Escherichia coli [11]) was 100 µg/mL (≈ 168 µM) and the zone of inhibition at 100 µg/disc (Proteus vulgaris [12]) was 18 mm. For the same compound, the zone of inhibition at 100 µg/disc (Salmonella typhi [13]) was 19 mm, the MIC (Salmonella typhi [14]) was 50 µg/mL (≈ 83.8 µM) and the zone of inhibition at 100 µg/disc (Shigella flexneri [15]) was 13 mm. It also gave a zone of inhibition at 100 µg/disc (Pseudomonas aeruginosa [16]) of 15 mm, a zone of inhibition at 100 µg/disc (Candida albicans [17]) of 20 mm and an MIC (Klebsiella pneumoniae [18]) of 50 µg/mL (≈ 83.8 µM). It also gave an MIC (Bacillus subtilis [19]) of 100 µg/mL (≈ 168 µM), an MIC (Candida albicans [20]) of 50 µg/mL (≈ 83.8 µM) and a zone of inhibition at 100 µg/disc (Aspergillus fumigatus [21]) of 17 mm. It also gave a zone of inhibition at 100 µg/disc (Escherichia coli [22]) of 12 mm, a zone of inhibition at 100 µg/disc (Aspergillus clavatus [23]) of 16 mm and an MIC (Staphylococcus aureus [24]) of 50 µg/mL (≈ 83.8 µM).
`Cc1cc(=O)oc2cc(Oc3nc(Nc4ccc(N5C(=O)C(CN6CCN(c7ccccn7)CC6)SC5c5ccccc5)cc4)nc(N(C)C)n3)ccc12` (stereo not given) gave an MIC (Shigella flexneri [1]) of 100 µg/mL (≈ 135 µM), an MIC (Aspergillus niger [2]) of 100 µg/mL (≈ 135 µM) and an MIC (Aspergillus fumigatus [3]) of 100 µg/mL (≈ 135 µM). It also gave a zone of inhibition at 100 µg/disc (Bacillus subtilis [4]) of 16 mm, an MIC (Proteus vulgaris [5]) of 100 µg/mL (≈ 135 µM) and a zone of inhibition at 100 µg/disc (Aspergillus niger [6]) of 14 mm. For the same compound, the zone of inhibition at 100 µg/disc (Klebsiella pneumoniae [7]) was 13 mm, the MIC (Pseudomonas aeruginosa [8]) was 50 µg/mL (≈ 67.4 µM) and the zone of inhibition at 100 µg/disc (Staphylococcus aureus [9]) was 14 mm. The MIC (Aspergillus clavatus [10]) was 100 µg/mL (≈ 135 µM), the MIC (Escherichia coli [11]) was 100 µg/mL (≈ 135 µM) and the zone of inhibition at 100 µg/disc (Proteus vulgaris [12]) was 13 mm. For the same compound, the zone of inhibition at 100 µg/disc (Salmonella typhi [13]) was 14 mm, the MIC (Salmonella typhi [14]) was 100 µg/mL (≈ 135 µM) and the zone of inhibition at 100 µg/disc (Shigella flexneri [15]) was 15 mm. For the same compound, the zone of inhibition at 100 µg/disc (Pseudomonas aeruginosa [16]) was 19 mm, the zone of inhibition at 100 µg/disc (Candida albicans [17]) was 12 mm and the MIC (Klebsiella pneumoniae [18]) was 100 µg/mL (≈ 135 µM). It also gave an MIC (Bacillus subtilis [19]) of 100 µg/mL (≈ 135 µM), an MIC (Candida albicans [20]) of 100 µg/mL (≈ 135 µM) and a zone of inhibition at 100 µg/disc (Aspergillus fumigatus [21]) of less than 10 mm. The zone of inhibition at 100 µg/disc (Escherichia coli [22]) was 16 mm, the zone of inhibition at 100 µg/disc (Aspergillus clavatus [23]) was 16 mm and the MIC (Staphylococcus aureus [24]) was 100 µg/mL (≈ 135 µM).
In the case of `COc1ccc(C2SC(CN3CCN(c4ccccn4)CC3)C(=O)N2c2ccc(Nc3nc(Oc4ccc5c(C)cc(=O)oc5c4)nc(N(C)C)n3)cc2)cc1` (stereo not given), the MIC (Shigella flexneri [1]) is reported as 100 µg/mL (≈ 130 µM), the MIC (Aspergillus niger [2]) is reported as 25 µg/mL (≈ 32.4 µM) and the MIC (Aspergillus fumigatus [3]) is reported as 25 µg/mL (≈ 32.4 µM). For the same compound, the zone of inhibition at 100 µg/disc (Bacillus subtilis [4]) was 19 mm, the MIC (Proteus vulgaris [5]) was 50 µg/mL (≈ 64.8 µM) and the zone of inhibition at 100 µg/disc (Aspergillus niger [6]) was 22 mm. It also gave a zone of inhibition at 100 µg/disc (Klebsiella pneumoniae [7]) of 19 mm, an MIC (Pseudomonas aeruginosa [8]) of 100 µg/mL (≈ 130 µM) and a zone of inhibition at 100 µg/disc (Staphylococcus aureus [9]) of 21 mm. For the same compound, the MIC (Aspergillus clavatus [10]) was 50 µg/mL (≈ 64.8 µM), the MIC (Escherichia coli [11]) was 100 µg/mL (≈ 130 µM) and the zone of inhibition at 100 µg/disc (Proteus vulgaris [12]) was 20 mm. The zone of inhibition at 100 µg/disc (Salmonella typhi [13]) was 22 mm, the MIC (Salmonella typhi [14]) was 25 µg/mL (≈ 32.4 µM) and the zone of inhibition at 100 µg/disc (Shigella flexneri [15]) was 17 mm. For the same compound, the zone of inhibition at 100 µg/disc (Pseudomonas aeruginosa [16]) was 18 mm, the zone of inhibition at 100 µg/disc (Candida albicans [17]) was 23 mm and the MIC (Klebsiella pneumoniae [18]) was 50 µg/mL (≈ 64.8 µM). The MIC (Bacillus subtilis [19]) was 25 µg/mL (≈ 32.4 µM), the MIC (Candida albicans [20]) was 25 µg/mL (≈ 32.4 µM) and the zone of inhibition at 100 µg/disc (Aspergillus fumigatus [21]) was 20 mm. For the same compound, the zone of inhibition at 100 µg/disc (Escherichia coli [22]) was 16 mm, the zone of inhibition at 100 µg/disc (Aspergillus clavatus [23]) was 19 mm and the MIC (Staphylococcus aureus [24]) was 25 µg/mL (≈ 32.4 µM).
